Laboratory results from US6706663B2, “Herbicidal 3-heterocyclic substituted benzisothiazole and benzisoxazole compounds” (Wyeth, priority 2000, dated 2004).

Tests used:
[1] = tested on: ZEAMX (Corn, Field); assay: Preemergence herbicidal evaluation; format: in vivo, Zea mays, L.; details: rated 4-5 weeks after treatment
From the text: (§1) Results of herbicide evaluation are expressed on a rating scale (0-9). The scale is based upon a visual observation of plant stand, vigor, malformation, size, chlorosis and overall plant appearance as compared with a control.
(§2) The preemergence herbicidal activity of the test compounds of the present invention is exemplified by the following tests in which the seeds of a variety of monocotyledonous and dicotyledonous plants are separately mixed with potting soil and planted on top of approximately one inch of soil in separate pint cups. […] The treated cups are then placed on greenhouse benches, watered and cared for in accordance with conventional greenhouse procedures. From four to five weeks after treatment, the tests are terminated and each cup is examined and rated according to the rating system provided in Example 87. The plant species used and the compounds evaluated are the same as those shown in Example 87.

[2] = tested on: SETVI (Setaria viridis); assay: Preemergence herbicidal evaluation; format: in vivo, (L.) Beau; details: rated 4-5 weeks after treatment
From the text: as §1, §2

[3] = tested on: ECHCG (Echinochloa crus-galli); assay: Preemergence herbicidal evaluation; format: in vivo, (L.) Beau; details: rated 4-5 weeks after treatment
From the text: as §1, §2

[4] = tested on: CHEAL (Chenopodium album); assay: Preemergence herbicidal evaluation; format: in vivo, L.; details: rated 4-5 weeks after treatment
From the text: as §1, §2

[5] = tested on: AMBEL (Ambrosia artemisifolia); assay: Preemergence herbicidal evaluation; format: in vivo, L.; details: rated 4-5 weeks after treatment
From the text: as §1, §2

[6] = tested on: CASOB (Cassia obtusifolia); assay: Preemergence herbicidal evaluation; format: in vivo, L.; details: rated 4-5 weeks after treatment
From the text: as §1, §2

[7] = tested on: ZEAMX (Corn, Field); assay: Postemergence herbicidal evaluation; format: in vivo, Zea mays, L.; details: postemergence
Description: (§3) In the tests, seedling plants are grown in jiffy flats for about two weeks. […] After spraying, the plants are placed on greenhouse benches and are cared for in accordance with conventional greenhouse procedures. From four to five weeks after treatment, the seedling plants are examined and rated according to the rating system set forth below. Where more than one test is involved for a given compound, the data are averaged.
as §1

[8] = tested on: CYPIR (Cyperus iria); assay: Flooded paddy, preemergence weed control; format: in vivo; details: rated 3-4 weeks after treatment, 0-9 rating scale
Description: as §1
(§4) Preemergence herbicidal activity under flooded paddy conditions is determined as follows: plant seeds or propagating organs are planted in the top 0.5 cm of silt loam soil in 32 oz. plastic containers with a diameter of 10.5 cm and no drainage holes. Water is added to these containers and maintained at 1.5 to 3 cm above the soil surface for the duration of the experiment. […] The treated containers are placed on greenhouse benches and cared for in accordance with conventional greenhouse procedures.

[9] = tested on: IPOHE (Ipomoea hederacea); assay: Postemergence herbicidal evaluation; format: in vivo, (L.) Jacq.; details: postemergence
Description: as §3, §1

[10] = tested on: ABUTH (Abutilon theophrasti); assay: Postemergence herbicidal evaluation; format: in vivo, Medic.; details: postemergence
Description: as §3, §1

[11] = tested on: ORYSAT (Rice, Tebonnet); assay: Preemergence herbicidal evaluation; format: in vivo, Oryza sativa, (L.) Tebonnet; details: rated 4-5 weeks after treatment
From the text: as §1, §2

[12] = tested on: ECHORC (Echinochloa oryzoides); assay: Flooded paddy, preemergence weed control; format: in vivo, Echinochloa oryzoides (Ard.) Fritsch.; details: rated 3-4 weeks after treatment, 0-9 rating scale
Description: as §1, §4

[13] = tested on: SAGPY (Sagittaria pygmaea); assay: Flooded paddy, preemergence weed control; format: in vivo, L.; details: rated 3-4 weeks after treatment, 0-9 rating scale
Description: as §1, §4

[14] = tested on: IPOHE (Ipomoea hederacea); assay: Preemergence herbicidal evaluation; format: in vivo, (L.) Jacq.; details: rated 4-5 weeks after treatment
From the text: as §1, §2

[15] = tested on: SETVI (Setaria viridis); assay: Postemergence herbicidal evaluation; format: in vivo, (L.) Beau; details: postemergence
Description: In the tests, seedling plants are grown in jiffy flats for about two weeks. The test compounds are dispersed in 50/50 acetone/water mixtures containing 0.5% TWEEN® 20, a polyoxyethylene sorbitan monolaurate surfactant of Atlas Chemical Industries, in sufficient quantities to provide the equivalent of about 0.0040 kg to 1.000 kg per hectare of active compound when applied to the plants through a spray nozzle operating at 40 psi for a predetermined time. After spraying, the plants are placed on greenhouse benches and are cared for in accordance with conventional greenhouse procedures. From four to five weeks after treatment, the seedling plants are examined and rated according to the rating system set forth below. Where more than one test is involved for a given compound, the data are averaged.
as §1

[16] = tested on: ORYSAT (Rice, Tebonnet); assay: Postemergence herbicidal evaluation; format: in vivo, Oryza sativa, (L.) Tebonnet; details: postemergence
Description: as §3, §1

[17] = tested on: GALAP (Galium aparine); assay: Preemergence herbicidal evaluation; format: in vivo; details: rated 4-5 weeks after treatment
From the text: as §1, §2

[18] = tested on: ECHCG (Echinochloa crus-galli); assay: Postemergence herbicidal evaluation; format: in vivo, (L.) Beau; details: postemergence
Description: as §3, §1

[19] = tested on: GLXMAW (Soybean, Williams); assay: Preemergence herbicidal evaluation; format: in vivo, Glycine max, (L.) Merr. cv Williams; details: rated 4-5 weeks after treatment
From the text: as §1, §2

[20] = tested on: GLXMAW (Soybean, Williams); assay: Postemergence herbicidal evaluation; format: in vivo, Glycine max, (L.) Merr. cv Williams; details: postemergence
Description: as §3, §1

[21] = tested on: MOOVA (Monochoria vaginalis); assay: Flooded paddy, preemergence weed control; format: in vivo, Presl.; details: rated 3-4 weeks after treatment, 0-9 rating scale
Description: as §1, §4

[22] = tested on: CHEAL (Chenopodium album); assay: Postemergence herbicidal evaluation; format: in vivo, L.; details: postemergence
Description: as §3, §1

[23] = tested on: AMBEL (Ambrosia artemisifolia); assay: Postemergence herbicidal evaluation; format: in vivo, L.; details: postemergence
Description: as §3, §1

[24] = tested on: CASOB (Cassia obtusifolia); assay: Postemergence herbicidal evaluation; format: in vivo, L.; details: postemergence
Description: as §3, §1

[25] = tested on: TRZAWR (Wheat, Winter, cv Riband); assay: Preemergence herbicidal evaluation; format: in vivo, Triticum aestivum; details: rated 4-5 weeks after treatment
From the text: as §1, §2

[26] = tested on: TRZAWR (Wheat, Winter, cv Riband); assay: Postemergence herbicidal evaluation; format: in vivo, Triticum aestivum; details: postemergence
Description: as §3, §1

[27] = tested on: GALAP (Galium aparine); assay: Postemergence herbicidal evaluation; format: in vivo; details: postemergence
Description: as §3, §1

[28] = tested on: ABUTH (Abutilon theophrasti); assay: Preemergence herbicidal evaluation; format: in vivo, Medic.; details: rated 4-5 weeks after treatment
From the text: as §1, §2

[29] = tested on: ORYSAT (Rice, Tebonnet); assay: Flooded paddy, post-transplant rice tolerance; format: in vivo, Oryza sativa, (L.) Tebonnet; details: in vivo
Description: as §1
The tolerance of transplanted rice to post-transplanted herbicide application is determined as follows: two ten-day-old rice seedlings (cv. Tebonnet) are transplanted into silt loam soil in 32 oz. plastic containers with a diameter of 10.5 cm and no drainage holes. After transplanting, the containers are flooded and the water level is maintained at 1.5 to 3 cm above the soil surface. […] The treated containers are placed on greenhouse benches, watered such that the water level is maintained as stated above, and cared for in accordance with conventional greenhouse procedures.

## 3-[3-[5-(bromomethyl)-5-hydroxy-m-diaxan-2-yl]-1,2-benzisothiazol-5-yl]-1-methyl-6-(trifluoromethyl)uracil [Compound 69]
[1]; Rate 0.0620 kg/ha
  Preemergence herbicidal rating ZEAMX: 1.0
[1]; Rate 0.1250 kg/ha
  Preemergence herbicidal rating ZEAMX: 3.0
[1]; Rate 0.2500 kg/ha
  Preemergence herbicidal rating ZEAMX: 7.0
[2]; Rate 0.0620 kg/ha
  Preemergence herbicidal rating SETVI: 7.0
[2]; Rate 0.1250 kg/ha
  Preemergence herbicidal rating SETVI: 9.0
[2]; Rate 0.2500 kg/ha
  Preemergence herbicidal rating SETVI: 9.0
[3]; Rate 0.0620 kg/ha
  Preemergence herbicidal rating ECHCG: 4.0
[3]; Rate 0.1250 kg/ha
  Preemergence herbicidal rating ECHCG: 8.0
[3]; Rate 0.2500 kg/ha
  Preemergence herbicidal rating ECHCG: 8.0
[4]; Rate 0.0620 kg/ha
  Preemergence herbicidal rating CHEAL: 9.0
[4]; Rate 0.1250 kg/ha
  Preemergence herbicidal rating CHEAL: 9.0
[4]; Rate 0.2500 kg/ha
  Preemergence herbicidal rating CHEAL: 9.0
[5]; Rate 0.0620 kg/ha
  Preemergence herbicidal rating AMBEL: 7.0
[5]; Rate 0.1250 kg/ha
  Preemergence herbicidal rating AMBEL: 9.0
[5]; Rate 0.2500 kg/ha
  Preemergence herbicidal rating AMBEL: 8.0
[6]; Rate 0.0620 kg/ha
  Preemergence herbicidal rating CASOB: 0.0
[6]; Rate 0.1250 kg/ha
  Preemergence herbicidal rating CASOB: 1.0
[6]; Rate 0.2500 kg/ha
  Preemergence herbicidal rating CASOB: 6.0
[7]; rate 0.0320 kg/ha
  ZEAMX herbicidal rating: 5.5
[7]; rate 0.0620 kg/ha
  ZEAMX herbicidal rating: 5.5
[8]; rate 0.0080 kg/ha
  herbicidal rating, CYPIR: 0.0
[8]; rate 0.0320 kg/ha
  herbicidal rating, CYPIR: 0.0
[8]; rate 0.1250 kg/ha
  herbicidal rating, CYPIR: 3.0
[9]; rate 0.0320 kg/ha
  IPOHE herbicidal rating: 9.0
[9]; rate 0.0620 kg/ha
  IPOHE herbicidal rating: 9.0
[10]; rate 0.0320 kg/ha
  ABUTH herbicidal rating: 9.0
[10]; rate 0.0620 kg/ha
  ABUTH herbicidal rating: 9.0
[11]; Rate 0.0620 kg/ha
  Preemergence herbicidal rating ORYSAT: 1.0
[11]; Rate 0.1250 kg/ha
  Preemergence herbicidal rating ORYSAT: 2.0
[11]; Rate 0.2500 kg/ha
  Preemergence herbicidal rating ORYSAT: 5.0
[12]; rate 0.0080 kg/ha
  herbicidal rating, ECHORC: 0.0
[12]; rate 0.0320 kg/ha
  herbicidal rating, ECHORC: 0.0
[12]; rate 0.1250 kg/ha
  herbicidal rating, ECHORC: 3.0
[13]; rate 0.0080 kg/ha
  herbicidal rating, SAGPY: 0.0
[13]; rate 0.0320 kg/ha
  herbicidal rating, SAGPY: 0.0
[13]; rate 0.1250 kg/ha
  herbicidal rating, SAGPY: 3.0
[14]; Rate 0.0620 kg/ha
  Preemergence herbicidal rating IPOHE: 1.0
[14]; Rate 0.1250 kg/ha
  Preemergence herbicidal rating IPOHE: 9.0
[14]; Rate 0.2500 kg/ha
  Preemergence herbicidal rating IPOHE: 9.0
[15]; rate 0.0320 kg/ha
  SETVI herbicidal rating: 2.0
[15]; rate 0.0620 kg/ha
  SETVI herbicidal rating: 4.0
[16]; rate 0.0320 kg/ha
  ORYSAT herbicidal rating: 4.0
[16]; rate 0.0620 kg/ha
  ORYSAT herbicidal rating: 4.0
[17]; Rate 0.0620 kg/ha
  Preemergence herbicidal rating GALAP: 7.0
[17]; Rate 0.1250 kg/ha
  Preemergence herbicidal rating GALAP: 9.0
[17]; Rate 0.2500 kg/ha
  Preemergence herbicidal rating GALAP: 9.0
[18]; rate 0.0320 kg/ha
  ECHCG herbicidal rating: 2.0
[18]; rate 0.0620 kg/ha
  ECHCG herbicidal rating: 3.0
[19]; Rate 0.0620 kg/ha
  Preemergence herbicidal rating GLXMAW: 2.0
[19]; Rate 0.1250 kg/ha
  Preemergence herbicidal rating GLXMAW: 9.0
[19]; Rate 0.2500 kg/ha
  Preemergence herbicidal rating GLXMAW: 9.0
[20]; rate 0.0320 kg/ha
  GLXMAW herbicidal rating: 7.5
[20]; rate 0.0620 kg/ha
  GLXMAW herbicidal rating: 7.0
[21]; rate 0.0080 kg/ha
  herbicidal rating, MOOVA: 0.0
[21]; rate 0.0320 kg/ha
  herbicidal rating, MOOVA: 0.0
[21]; rate 0.1250 kg/ha
  herbicidal rating, MOOVA: 3.0
[22]; rate 0.0320 kg/ha
  CHEAL herbicidal rating: 9.0
[22]; rate 0.0620 kg/ha
  CHEAL herbicidal rating: 7.0
[23]; rate 0.0320 kg/ha
  AMBEL herbicidal rating: 9.0
[23]; rate 0.0620 kg/ha
  AMBEL herbicidal rating: 9.0
[24]; rate 0.0320 kg/ha
  CASOB herbicidal rating: 0.0
[24]; rate 0.0620 kg/ha
  CASOB herbicidal rating: 2.0
[25]; Rate 0.0620 kg/ha
  Preemergence herbicidal rating TRZAWR: 1.0
[25]; Rate 0.1250 kg/ha
  Preemergence herbicidal rating TRZAWR: 2.0
[25]; Rate 0.2500 kg/ha
  Preemergence herbicidal rating TRZAWR: 5.0
[26]; rate 0.0320 kg/ha
  TRZAWR herbicidal rating: 4.0
[26]; rate 0.0620 kg/ha
  TRZAWR herbicidal rating: 4.5
[27]; rate 0.0320 kg/ha
  GALAP herbicidal rating: 4.0
[27]; rate 0.0620 kg/ha
  GALAP herbicidal rating: 6.0
[28]; Rate 0.0620 kg/ha
  Preemergence herbicidal rating ABUTH: 9.0
[28]; Rate 0.1250 kg/ha
  Preemergence herbicidal rating ABUTH: 9.0
[28]; Rate 0.2500 kg/ha
  Preemergence herbicidal rating ABUTH: 9.0

## Cn1c(C(F)(F)F)cc(=O)n(-c2ccc3snc(-c4cccnc4)c3c2)c1=O [Example 11]
[29]
  herbicidal rating, ORYSAT (rice tolerance): 0.0

## Cn1c(C(F)(F)F)cc(=O)n(-c2ccc3c(c2)C(c2cccc[n+]2[O-])=NS3(=O)=O)c1=O [Example 15]
[29]
  herbicidal rating, ORYSAT (rice tolerance): 0.0
